Data from PubChem BioAssay AID248 (DTP/NCI, 2004).
Several values for one entry are separate records, joined by “and”; a condition that tells them apart may be missing. Equal entries are not always repeated. Toxic doses and inconclusive results are not listed. No stated cut-off is given here; in the data, active means T/C of 150% or more; inactive means T/C below 125%.

Tested on: L1210 leukemia ip in BDF1 mice, survival T/C
Assay: NCI In Vivo Anticancer Drug Screen. Data for tumor model L1210 Leukemia (intraperitoneal) in B6D2F1 (BDF1) mice
Conditions: endpoint: mean survival time, higher = longer survival
Outline: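 Ratio derived from survival: compound-dosed mice over vehicle-dosed mice, all bearing a transplantable tumor.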

[1] = dose: 50.0 mg/kg/injection, schedule: Q01DX009 (ip), vehicle: Klucel (hydroxypropylcellulose) (HPC)
[2] = dose: 100.0 mg/kg/injection, schedule: Q01DX009 (ip), vehicle: Klucel (hydroxypropylcellulose) (HPC)
[3] = dose: 100.0 mg/kg/injection, schedule: Q04DX003 (ip), vehicle: Klucel (hydroxypropylcellulose) (HPC)
[4] = dose: 200.0 mg/kg/injection, schedule: Q01DX009 (ip), vehicle: Klucel (hydroxypropylcellulose) (HPC)
[5] = dose: 200.0 mg/kg/injection, schedule: Q04DX003 (ip), vehicle: Klucel (hydroxypropylcellulose) (HPC)
[6] = dose: 400.0 mg/kg/injection, schedule: Q04DX003 (ip), vehicle: Klucel (hydroxypropylcellulose) (HPC)
[7] = dose: 50.0 mg/kg/injection, schedule: Q04DX003 (ip), vehicle: Klucel (hydroxypropylcellulose) (HPC)
[8] = dose: 100.0 mg/kg/injection, schedule: Q01DX001 (ip), vehicle: Klucel (hydroxypropylcellulose) (HPC)
[9] = dose: 200.0 mg/kg/injection, schedule: Q01DX001 (ip), vehicle: Klucel (hydroxypropylcellulose) (HPC)
[10] = dose: 100.0 mg/kg/injection, schedule: Q01DX001 (ip), vehicle: carboxymethylcellulose (CMC)
[11] = dose: 200.0 mg/kg/injection, schedule: Q01DX001 (ip), vehicle: carboxymethylcellulose (CMC)
[12] = dose: 400.0 mg/kg/injection, schedule: Q01DX001 (ip), vehicle: carboxymethylcellulose (CMC)
[13] = dose: 50.0 mg/kg/injection, schedule: Q01DX001 (ip), vehicle: carboxymethylcellulose (CMC)
[14] = dose: 100.0 mg/kg/injection, schedule: Q04DX002 (ip), vehicle: Klucel (hydroxypropylcellulose) (HPC)
[15] = dose: 100.0 mg/kg/injection, schedule: Q01DX009 (ip), vehicle: saline with Tween-80
[16] = dose: 200.0 mg/kg/injection, schedule: Q01DX009 (ip), vehicle: saline with Tween-80
[17] = dose: 400.0 mg/kg/injection, schedule: Q01DX009 (ip), vehicle: saline with Tween-80
[18] = dose: 50.0 mg/kg/injection, schedule: Q04DX003 (ip), vehicle: saline
[19] = dose: 50.0 mg/kg/injection, schedule: Q01DX009 (ip), vehicle: saline with Tween-80
[20] = dose: 100.0 mg/kg/injection, schedule: Q01DX001 (ip), vehicle: saline
[21] = dose: 200.0 mg/kg/injection, schedule: Q01DX001 (ip), vehicle: saline
[22] = dose: 100.0 mg/kg/injection, schedule: Q04DX003 (ip), vehicle: saline with Tween-80
[23] = dose: 200.0 mg/kg/injection, schedule: Q04DX003 (ip), vehicle: saline with Tween-80
[24] = dose: 400.0 mg/kg/injection, schedule: Q04DX003 (ip), vehicle: saline with Tween-80

Measured: T/C

COc1ccc(S(=O)(=O)NC(=O)NC(=O)C=C(C)C)cc1
inactive: [1] 98 % of control | [2] 104 % of control | [3] 102 % of control | [4] 96 % of control | [5] 98 % of control | [6] 101 % of control

CC1=C(Br)C(=O)C(c2c(C)cc(C)c(Br)c2C)=C(Br)C1=O
inactive: [7] 111 % of control | [8] 89 % of control | [3] 92 % of control | [9] 87 % of control | [5] 94 % of control

C=C(C)[C@@H](/C=C/[C@@H](C)[C@H]1CC[C@H]2C3=CC[C@H]4C[C@@H](O)CC[C@]4(C)[C@H]3CC[C@]12C)CC
inactive: [10] 96 % of control | [11] 100 % of control

CCN(CC)c1ccc(/C=C2/C=Cc3ccccc32)cc1
inactive: [10] 92 % of control | [11] 90 % of control | [12] 95 % of control

CN1C(=O)N(Br)C(C)(C)C1=O
inactive: [1] 95 % of control | [7] 106 % of control | [8] 92 % of control | [2] 98 % of control | [3] 100 % of control | [9] 102 % of control | [5] 97 % of control

O=C(c1ccccc1)C(c1ccccc1)(c1ccccc1)c1ccccc1
inactive: [13] 90 % of control | [10] 95 % of control | [14] 97 % of control | [11] 108 % of control | dose: 200.0 mg/kg/injection, schedule: Q04DX002 (ip), vehicle: Klucel (hydroxypropylcellulose) (HPC) 94 % of control | [12] 123 % of control | dose: 400.0 mg/kg/injection, schedule: Q04DX002 (ip), vehicle: Klucel (hydroxypropylcellulose) (HPC) 97 % of control

ClCc1nc(-c2ccco2)no1
inactive: [2] 95 % of control

N/C(=N\N=C\c1c(F)c(F)c(F)c(F)c1F)N[N+](=O)[O-]
inactive: [15] 102 % of control | [16] 97 % of control | [17] 94 % of control

C=Cn1cc[n+](Cc2ccccc2)c1C
inactive: dose: 10.0 mg/kg/injection, schedule: Q01DX009 (ip), vehicle: saline 101 % of control and 104 % of control | dose: 10.0 mg/kg/injection, schedule: Q04DX002 (ip), vehicle: saline 108 % of control and 90 % of control | dose: 20.0 mg/kg/injection, schedule: Q01DX009 (ip), vehicle: saline 105 % of control | dose: 20.0 mg/kg/injection, schedule: Q04DX002 (ip), vehicle: saline 94 % of control and 97 % of control | dose: 40.0 mg/kg/injection, schedule: Q01DX009 (ip), vehicle: saline 100 % of control and 116 % of control | dose: 40.0 mg/kg/injection, schedule: Q04DX002 (ip), vehicle: saline 97 % of control and 102 % of control

COC(=O)C1=C2c3ccc(OC)cc3CCC2C(=O)C1 (stereo not given)
inactive: [3] 97 % of control | [5] 105 % of control | [6] 89 % of control

O=c1[nH]cnc2c1nnn2C1CC(CO)C(O)C1O (stereo not given)
inactive: [18] 92 % of control | dose: 100.0 mg/kg/injection, schedule: Q04DX003 (ip), vehicle: saline 92 % of control | dose: 200.0 mg/kg/injection, schedule: Q04DX003 (ip), vehicle: saline 96 % of control

CCOC(=O)COCC(C)=O
inactive: [19] 92 % of control | [15] 96 % of control | [16] 96 % of control

c1ccc(CNc2cnccn2)cc1
inactive: [20] 105 % of control | [21] 105 % of control

CC1CCC2C(C1)N(C(C)C)OC2(C)C (stereo not given)
inactive: [19] 104 % of control | [15] 98 % of control | [22] 108 % of control | [23] 102 % of control

CCCCN(CCCC)S(=O)(=O)O
inactive: dose: 25.0 mg/kg/injection, schedule: Q04DX002 (ip), vehicle: Klucel (hydroxypropylcellulose) (HPC) 101 % of control | dose: 50.0 mg/kg/injection, schedule: Q04DX002 (ip), vehicle: Klucel (hydroxypropylcellulose) (HPC) 108 % of control | [14] 115 % of control

O=c1cc(Nc2ccccc2)[nH]c(=O)[nH]1
inactive: [8] 92 % of control | [9] 93 % of control | dose: 400.0 mg/kg/injection, schedule: Q01DX001 (ip), vehicle: Klucel (hydroxypropylcellulose) (HPC) 95 % of control

CCCCCCCC/C=C\CCCCCCCC(=O)O.[Fe]
inactive: [20] 93 % of control | [21] 95 % of control | dose: 400.0 mg/kg/injection, schedule: Q01DX001 (ip), vehicle: saline 90 % of control

CC(C(=O)N1c2ccccc2Sc2ccccc21)[N+]1(C)CCCC1 (stereo not given)
inactive: dose: 3.12 mg/kg/injection, schedule: Q01DX009 (ip), vehicle: saline 97 % of control | dose: 6.25 mg/kg/injection, schedule: Q01DX009 (ip), vehicle: saline 103 % of control | dose: 12.5 mg/kg/injection, schedule: Q01DX009 (ip), vehicle: saline 102 % of control | dose: 25.0 mg/kg/injection, schedule: Q01DX009 (ip), vehicle: saline 102 % of control | dose: 25.0 mg/kg/injection, schedule: Q04DX003 (ip), vehicle: saline 107 % of control | dose: 50.0 mg/kg/injection, schedule: Q01DX009 (ip), vehicle: saline 91 % of control | [18] 91 % of control

Nc1nc(N)c2nc3c(nc2n1)C(=O)N(c1ccc(C(=O)NC(CCC(=O)O)C(=O)O)cc1)C3 (stereo not given)
inactive: dose: 100.0 mg/kg/injection, schedule: Q01DX009 (ip), vehicle: saline 94 % of control | dose: 200.0 mg/kg/injection, schedule: Q01DX009 (ip), vehicle: saline 98 % of control | dose: 400.0 mg/kg/injection, schedule: Q01DX009 (ip), vehicle: saline 86 % of control

CC(=O)OCCN1c2ccccc2Sc2cnccc21
inactive: [15] 104 % of control | [22] 104 % of control | [16] 97 % of control | [23] 110 % of control | [17] 104 % of control | [24] 104 % of control

COc1cc(/C=C2\CCOC2=O)c([N+](=O)[O-])cc1OC
inactive: [13] 96 % of control | [10] 94 % of control | [11] 94 % of control | [12] 90 % of control

Cc1ccc(C)c(NC(=O)c2ccccc2N)c1
inactive: [2] 98 % of control | [3] 104 % of control | [4] 93 % of control | [5] 97 % of control | dose: 400.0 mg/kg/injection, schedule: Q01DX009 (ip), vehicle: Klucel (hydroxypropylcellulose) (HPC) 93 % of control | [6] 92 % of control

CSc1ccc(NC(=O)c2cccc([N+](=O)[O-])c2C(=O)O)cc1
inactive: dose: 100.0 mg/kg/injection, schedule: Q04DX002 (ip), vehicle: saline 106 % of control | dose: 200.0 mg/kg/injection, schedule: Q04DX002 (ip), vehicle: saline 110 % of control | dose: 400.0 mg/kg/injection, schedule: Q04DX002 (ip), vehicle: saline 106 % of control

Cc1ccc(-n2c(=O)c(N=Nc3ccc(Br)cc3)c(O)n(-c3ccccc3Cl)c2=S)cc1
inactive: dose: 37.5 mg/kg/injection, schedule: Q01DX001 (ip), vehicle: Klucel (hydroxypropylcellulose) (HPC) 107 % of control | dose: 75.0 mg/kg/injection, schedule: Q01DX001 (ip), vehicle: Klucel (hydroxypropylcellulose) (HPC) 110 % of control | dose: 150.0 mg/kg/injection, schedule: Q01DX001 (ip), vehicle: Klucel (hydroxypropylcellulose) (HPC) 104 % of control

C/C(=C\C(C)C)C1(C)C(=O)NC(=O)NC1=O
inactive: dose: 75.0 mg/kg/injection, schedule: Q01DX001 (ip), vehicle: other 96 % of control | dose: 150.0 mg/kg/injection, schedule: Q01DX001 (ip), vehicle: other 109 % of control | dose: 300.0 mg/kg/injection, schedule: Q01DX001 (ip), vehicle: other 105 % of control

CC(C)CNC(=O)Nc1ccccc1C(F)(F)F
inactive: [22] 95 % of control | [23] 97 % of control | [24] 97 % of control

CC1(C)CC(=O)CC(C)(CN)C1 (stereo not given)
inactive: [3] 100 % of control | [5] 104 % of control | [6] 100 % of control
